Reference: ChEMBL document CHEMBL3797068, “eCF309: a potent, selective and cell-permeable mTOR inhibitor” (Medchemcomm, 2016)
Blank lines part the entries; values can stand above or below the molecule they belong to. Calls of active or inactive are those of the source. The rule behind the calls is not given here.

Experiments:
MCF7 [1] = test: Cytotoxicity against human MCF7 cells assessed as cell viability at 1000 nM after 5 days by Presto blue reagent-based spectrofluorometric analysis; type: functional; settings: MCF7, 120 h, read-out: Activity
MCF7 [2] = test: Cytotoxicity against human MCF7 cells after 5 days by Presto blue reagent-based fluorescence analysis; type: functional, cell-based; settings: MCF7, 120 h
MDA-MB-231 [3] = test: Cell cycle arrest in human MDA-MB-231 cells assessed as increase in G0/G1 population after 24 hrs by Hoechst 33342 staining-based fluorescence analysis; type: functional
[4] = Cell cycle arrest in human PC3 cells assessed as increase in G0/G1 population after 24 hrs by Hoechst 33342 staining-based fluorescence analysis; type: functional; settings: PC-3
mTORC1 (Homo sapiens) [5] = molecular target: T1, mTORC1 (Homo sapiens) (UniProt P42345+Q8N122+Q9BVC4); test: Inhibition of mTORC1 in human MCF7 cells assessed as reduction in phosphorylated S6 preincubated for 30 mins followed by serum stimulation for 1 hr by Western blot analysis; type: cell-based
[6] = molecular target: T2, Phosphatidylinositol 4,5-bisphosphate 3-kinase catalytic subunit beta isoform (Homo sapiens, UniProt P42338); test: Inhibition of PI3Kbeta (unknown origin) using (poly [Glu, Tyr] 4:1) as substrate assessed as incorporation of 33P in substrate by [gamma33P] ATP-based kinase assay
[7] = molecular target: T3, Serine/threonine-protein kinase mTOR (Homo sapiens, UniProt P42345); test: Inhibition of human mTOR at 10 uM by kinome profiling method
[8] = molecular target: T4, Epithelial discoidin domain-containing receptor 1 (Homo sapiens, UniProt Q08345); test: Inhibition of human DDR1 at 10 uM by kinome profiling method
[9] = molecular target: T5, Phosphatidylinositol 4,5-bisphosphate 3-kinase catalytic subunit delta isoform (Homo sapiens, UniProt O00329); test: Inhibition of PI3Kdelta (unknown origin) using PIP2 as substrate by HTRF assay
T5 sequence (O00329 whole entry): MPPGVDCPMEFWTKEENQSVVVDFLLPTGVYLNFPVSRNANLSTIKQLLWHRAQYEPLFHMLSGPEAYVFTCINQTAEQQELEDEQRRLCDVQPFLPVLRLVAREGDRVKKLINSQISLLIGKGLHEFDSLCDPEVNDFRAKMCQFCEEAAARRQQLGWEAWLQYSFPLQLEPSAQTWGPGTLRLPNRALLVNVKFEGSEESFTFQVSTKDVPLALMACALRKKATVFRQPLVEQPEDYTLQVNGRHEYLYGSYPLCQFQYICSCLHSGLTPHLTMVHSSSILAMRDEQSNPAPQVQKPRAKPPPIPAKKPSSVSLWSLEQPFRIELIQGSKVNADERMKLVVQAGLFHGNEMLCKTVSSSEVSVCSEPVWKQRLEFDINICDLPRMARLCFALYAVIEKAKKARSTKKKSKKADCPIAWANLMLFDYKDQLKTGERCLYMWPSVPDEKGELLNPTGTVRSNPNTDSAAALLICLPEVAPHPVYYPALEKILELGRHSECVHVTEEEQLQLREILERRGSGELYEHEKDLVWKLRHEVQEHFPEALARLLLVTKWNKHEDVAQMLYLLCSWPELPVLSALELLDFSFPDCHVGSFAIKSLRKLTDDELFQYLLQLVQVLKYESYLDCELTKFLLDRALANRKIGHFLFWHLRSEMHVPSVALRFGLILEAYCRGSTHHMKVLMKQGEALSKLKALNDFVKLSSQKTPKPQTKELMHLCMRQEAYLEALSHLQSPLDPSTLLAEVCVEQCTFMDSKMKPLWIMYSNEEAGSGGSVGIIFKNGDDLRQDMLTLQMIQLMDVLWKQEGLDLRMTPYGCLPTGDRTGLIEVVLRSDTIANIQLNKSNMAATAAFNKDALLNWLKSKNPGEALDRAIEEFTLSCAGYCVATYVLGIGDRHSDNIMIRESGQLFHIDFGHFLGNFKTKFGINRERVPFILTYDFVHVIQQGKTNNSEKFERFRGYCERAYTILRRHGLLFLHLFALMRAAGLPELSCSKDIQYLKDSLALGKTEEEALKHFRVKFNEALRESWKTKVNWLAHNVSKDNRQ

[10] = molecular target: T6, Phosphatidylinositol 4,5-bisphosphate 3-kinase catalytic subunit gamma isoform (Homo sapiens, UniProt P48736); test: Inhibition of PI3Kgamma (unknown origin) using (poly [Glu, Tyr] 4:1) as substrate assessed as incorporation of 33P in substrate by [gamma33P] ATP-based kinase assay
Target sequence in this assay (P48736 whole entry, canonical isoform): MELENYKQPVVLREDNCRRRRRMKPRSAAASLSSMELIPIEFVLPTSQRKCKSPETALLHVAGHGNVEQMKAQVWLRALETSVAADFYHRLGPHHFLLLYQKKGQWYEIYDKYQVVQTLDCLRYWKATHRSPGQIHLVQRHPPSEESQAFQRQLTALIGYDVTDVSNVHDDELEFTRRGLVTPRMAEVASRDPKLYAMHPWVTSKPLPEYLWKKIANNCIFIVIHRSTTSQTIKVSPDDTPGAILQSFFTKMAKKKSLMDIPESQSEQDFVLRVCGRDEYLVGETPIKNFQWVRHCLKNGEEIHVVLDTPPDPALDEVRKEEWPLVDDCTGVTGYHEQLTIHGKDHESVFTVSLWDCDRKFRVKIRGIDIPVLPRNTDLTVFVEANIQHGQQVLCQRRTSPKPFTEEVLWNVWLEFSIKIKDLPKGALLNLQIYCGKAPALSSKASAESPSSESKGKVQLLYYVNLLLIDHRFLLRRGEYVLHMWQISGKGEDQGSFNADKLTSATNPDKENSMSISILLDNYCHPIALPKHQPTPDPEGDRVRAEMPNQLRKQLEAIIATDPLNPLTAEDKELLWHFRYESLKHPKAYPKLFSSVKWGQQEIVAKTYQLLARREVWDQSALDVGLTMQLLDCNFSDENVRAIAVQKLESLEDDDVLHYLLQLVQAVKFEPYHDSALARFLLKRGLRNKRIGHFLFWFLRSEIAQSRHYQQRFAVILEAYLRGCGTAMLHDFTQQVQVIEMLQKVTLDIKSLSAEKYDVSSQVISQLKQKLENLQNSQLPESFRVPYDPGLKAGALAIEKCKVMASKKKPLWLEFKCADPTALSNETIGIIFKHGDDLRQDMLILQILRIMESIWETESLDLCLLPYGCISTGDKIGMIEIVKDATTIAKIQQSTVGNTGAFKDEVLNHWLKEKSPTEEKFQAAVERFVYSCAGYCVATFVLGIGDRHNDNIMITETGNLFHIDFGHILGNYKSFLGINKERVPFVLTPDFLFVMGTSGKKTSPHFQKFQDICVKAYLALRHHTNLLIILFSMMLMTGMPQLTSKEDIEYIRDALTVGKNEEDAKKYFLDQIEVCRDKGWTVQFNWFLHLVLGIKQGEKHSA

[11] = molecular target: T7, Phosphatidylinositol 4,5-bisphosphate 3-kinase catalytic subunit alpha isoform (Homo sapiens, UniProt P42336); test: Inhibition of PI3Kalpha (unknown origin) using (poly [Glu, Tyr] 4:1) as substrate assessed as incorporation of 33P in substrate by [gamma33P] ATP-based kinase assay
[12] = molecular target: T7, Phosphatidylinositol 4,5-bisphosphate 3-kinase catalytic subunit alpha isoform; test: Inhibition of human PI3Kalpha at 10 uM by kinome profiling method
[13] = molecular target: T2, Phosphatidylinositol 4,5-bisphosphate 3-kinase catalytic subunit beta isoform; test: Inhibition of PI3Kbeta (unknown origin) using PIP2 as substrate by HTRF assay
mTORC1 (Homo sapiens) [14] = molecular target: T1, mTORC1 (Homo sapiens); test: Inhibition of mTORC1 in human MCF7 cells assessed as reduction in phosphorylated P70S6K at 30 nM preincubated for 30 mins followed by serum stimulation for 1 hr by Western blot analysis; type: cell-based
[15] = molecular target: T8, DNA-dependent protein kinase catalytic subunit (Homo sapiens, UniProt P78527); test: Inhibition of human DNA-PK at 10 uM by kinome profiling method
[16] = molecular target: Mast/stem cell growth factor receptor Kit (Homo sapiens, UniProt P10721); test: Inhibition of human KIT using (poly [Glu, Tyr] 4:1) as substrate assessed as incorporation of 33P in substrate by [gamma33P] ATP-based kinase assay
[17] = molecular target: T6, Phosphatidylinositol 4,5-bisphosphate 3-kinase catalytic subunit gamma isoform; test: Inhibition of human PI3Kgamma at 10 uM by kinome profiling method
Target sequence in this assay (P48736 whole entry, looked up, canonical isoform): as the sequence (P48736 whole entry, canonical isoform) above

[18] = molecular target: T6, Phosphatidylinositol 4,5-bisphosphate 3-kinase catalytic subunit gamma isoform; test: Inhibition of PI3Kgamma (unknown origin) using PIP2 as substrate by HTRF assay
Target sequence in this assay (P48736 whole entry, canonical isoform): as above

MCF7 [19] = test: Inhibition of mTORC2 in human MCF7 cells assessed as reduction in phosphorylated AKT level preincubated for 30 mins followed by serum stimulation for 1 hr by Western blot analysis; type: cell-based
MDA-MB-231 [20] = test: Cytotoxicity against human MDA-MB-231 cells after 5 days by Presto blue reagent-based spectrofluorometric analysis; type: functional, cell-based; settings: MDA-MB-231, 120 h
[21] = Cytotoxicity against human PC3 cells after 5 days by Presto blue reagent-based spectrofluorometric analysis; type: functional, cell-based; settings: PC-3, 120 h
[22] = molecular target: Proto-oncogene tyrosine-protein kinase receptor Ret (Homo sapiens, UniProt P07949); test: Inhibition of human RET using (poly [Glu, Tyr] 4:1) as substrate assessed as incorporation of 33P in substrate by [gamma33P] ATP-based kinase assay
[23] = molecular target: Tyrosine-protein kinase Yes (Homo sapiens, UniProt P07947); test: Inhibition of human YES using (poly [Glu, Tyr] 4:1) as substrate assessed as incorporation of 33P in substrate by [gamma33P] ATP-based kinase assay
MCF7 [24] = test: Inhibition of mTORC2 in human MCF7 cells assessed as reduction in phosphorylated AKT level at 30 nM preincubated for 30 mins followed by serum stimulation for 1 hr by Western blot analysis; type: cell-based
[25] = molecular target: Tyrosine-protein kinase Fyn (Homo sapiens, UniProt P06241); test: Inhibition of human FYN using (poly [Glu, Tyr] 4:1) as substrate assessed as incorporation of 33P in substrate by [gamma33P] ATP-based kinase assay
mTORC1 (Homo sapiens) [26] = molecular target: T1, mTORC1 (Homo sapiens); test: Inhibition of mTORC1 in human MCF7 cells assessed as reduction in phosphorylated S6 at 30 nM preincubated for 30 mins followed by serum stimulation for 1 hr by Western blot analysis; type: cell-based
[27] = molecular target: T5, Phosphatidylinositol 4,5-bisphosphate 3-kinase catalytic subunit delta isoform; test: Inhibition of PI3Kdelta (unknown origin) using (poly [Glu, Tyr] 4:1) as substrate assessed as incorporation of 33P in substrate by [gamma33P] ATP-based kinase assay
[28] = molecular target: T7, Phosphatidylinositol 4,5-bisphosphate 3-kinase catalytic subunit alpha isoform; test: Inhibition of PI3Kalpha (unknown origin) using PIP2 as substrate by HTRF assay
[29] = molecular target: Platelet-derived growth factor receptor alpha (Homo sapiens, UniProt P16234); test: Inhibition of human PDGFRalpha using (poly [Glu, Tyr] 4:1) as substrate assessed as incorporation of 33P in substrate by [gamma33P] ATP-based kinase assay
[30] = molecular target: T8, DNA-dependent protein kinase catalytic subunit; test: Inhibition of human DNA-PK using (poly [Glu, Tyr] 4:1) as substrate assessed as incorporation of 33P in substrate by [gamma33P] ATP-based kinase assay
[31] = molecular target: Tyrosine-protein kinase ABL1 (Homo sapiens, UniProt P00519); test: Inhibition of human ABL using (poly [Glu, Tyr] 4:1) as substrate assessed as incorporation of 33P in substrate by [gamma33P] ATP-based kinase assay
[32] = molecular target: Tyrosine-protein kinase Blk (Homo sapiens, UniProt P51451); test: Inhibition of human BLK using (poly [Glu, Tyr] 4:1) as substrate assessed as incorporation of 33P in substrate by [gamma33P] ATP-based kinase assay
MCF7 [33] = test: Cell cycle arrest in human MCF7 cells assessed as increase in G0/G1 population after 24 hrs by Hoechst 33342 staining-based fluorescence analysis; type: functional
[34] = molecular target: Proto-oncogene tyrosine-protein kinase Src (Homo sapiens, UniProt P12931); test: Inhibition of human SRC using (poly [Glu, Tyr] 4:1) as substrate assessed as incorporation of 33P in substrate by [gamma33P] ATP-based kinase assay
[35] = molecular target: T4, Epithelial discoidin domain-containing receptor 1; test: Inhibition of human DDR1 using (poly [Glu, Tyr] 4:1) as substrate assessed as incorporation of 33P in substrate by [gamma33P] ATP-based kinase assay
mTORC1 (Homo sapiens) [36] = molecular target: T1, mTORC1 (Homo sapiens); test: Inhibition of mTORC1 in human MCF7 cells assessed as reduction in phosphorylated P70S6K preincubated for 30 mins followed by serum stimulation for 1 hr by Western blot analysis; type: cell-based
[37] = molecular target: T3, Serine/threonine-protein kinase mTOR; test: Inhibition of human mTOR using (poly [Glu, Tyr] 4:1) as substrate assessed as incorporation of 33P in substrate by [gamma33P] ATP-based kinase assay

T2 sequence (P42338 whole entry, canonical isoform): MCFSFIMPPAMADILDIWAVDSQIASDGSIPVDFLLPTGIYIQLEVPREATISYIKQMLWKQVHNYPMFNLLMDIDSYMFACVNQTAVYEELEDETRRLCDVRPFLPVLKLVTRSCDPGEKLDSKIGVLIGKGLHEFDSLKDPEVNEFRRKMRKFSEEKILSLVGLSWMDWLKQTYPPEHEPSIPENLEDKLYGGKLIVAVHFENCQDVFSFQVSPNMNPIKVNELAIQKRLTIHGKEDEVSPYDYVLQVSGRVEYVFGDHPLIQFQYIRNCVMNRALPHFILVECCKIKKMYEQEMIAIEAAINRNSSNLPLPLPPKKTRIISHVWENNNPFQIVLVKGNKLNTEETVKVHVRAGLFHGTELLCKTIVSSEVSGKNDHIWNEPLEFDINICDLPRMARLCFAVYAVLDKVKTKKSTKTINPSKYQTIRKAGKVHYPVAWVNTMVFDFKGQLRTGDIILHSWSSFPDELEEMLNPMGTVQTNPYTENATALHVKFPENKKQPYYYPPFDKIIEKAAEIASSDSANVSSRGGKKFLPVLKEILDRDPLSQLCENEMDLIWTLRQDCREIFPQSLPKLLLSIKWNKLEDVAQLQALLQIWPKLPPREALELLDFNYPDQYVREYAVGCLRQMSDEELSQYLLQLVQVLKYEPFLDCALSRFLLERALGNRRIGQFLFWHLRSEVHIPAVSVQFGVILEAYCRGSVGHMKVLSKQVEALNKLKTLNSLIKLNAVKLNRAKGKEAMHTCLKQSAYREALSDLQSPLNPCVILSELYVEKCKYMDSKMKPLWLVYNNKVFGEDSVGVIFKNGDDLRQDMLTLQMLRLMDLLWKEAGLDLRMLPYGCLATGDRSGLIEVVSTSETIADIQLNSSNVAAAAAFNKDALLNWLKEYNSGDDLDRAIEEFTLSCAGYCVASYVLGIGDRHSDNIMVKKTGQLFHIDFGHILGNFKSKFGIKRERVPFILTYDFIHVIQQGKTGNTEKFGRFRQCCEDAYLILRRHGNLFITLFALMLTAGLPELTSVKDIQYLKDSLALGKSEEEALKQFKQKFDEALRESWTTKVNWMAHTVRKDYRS
T7 sequence (P42336 whole entry, canonical isoform): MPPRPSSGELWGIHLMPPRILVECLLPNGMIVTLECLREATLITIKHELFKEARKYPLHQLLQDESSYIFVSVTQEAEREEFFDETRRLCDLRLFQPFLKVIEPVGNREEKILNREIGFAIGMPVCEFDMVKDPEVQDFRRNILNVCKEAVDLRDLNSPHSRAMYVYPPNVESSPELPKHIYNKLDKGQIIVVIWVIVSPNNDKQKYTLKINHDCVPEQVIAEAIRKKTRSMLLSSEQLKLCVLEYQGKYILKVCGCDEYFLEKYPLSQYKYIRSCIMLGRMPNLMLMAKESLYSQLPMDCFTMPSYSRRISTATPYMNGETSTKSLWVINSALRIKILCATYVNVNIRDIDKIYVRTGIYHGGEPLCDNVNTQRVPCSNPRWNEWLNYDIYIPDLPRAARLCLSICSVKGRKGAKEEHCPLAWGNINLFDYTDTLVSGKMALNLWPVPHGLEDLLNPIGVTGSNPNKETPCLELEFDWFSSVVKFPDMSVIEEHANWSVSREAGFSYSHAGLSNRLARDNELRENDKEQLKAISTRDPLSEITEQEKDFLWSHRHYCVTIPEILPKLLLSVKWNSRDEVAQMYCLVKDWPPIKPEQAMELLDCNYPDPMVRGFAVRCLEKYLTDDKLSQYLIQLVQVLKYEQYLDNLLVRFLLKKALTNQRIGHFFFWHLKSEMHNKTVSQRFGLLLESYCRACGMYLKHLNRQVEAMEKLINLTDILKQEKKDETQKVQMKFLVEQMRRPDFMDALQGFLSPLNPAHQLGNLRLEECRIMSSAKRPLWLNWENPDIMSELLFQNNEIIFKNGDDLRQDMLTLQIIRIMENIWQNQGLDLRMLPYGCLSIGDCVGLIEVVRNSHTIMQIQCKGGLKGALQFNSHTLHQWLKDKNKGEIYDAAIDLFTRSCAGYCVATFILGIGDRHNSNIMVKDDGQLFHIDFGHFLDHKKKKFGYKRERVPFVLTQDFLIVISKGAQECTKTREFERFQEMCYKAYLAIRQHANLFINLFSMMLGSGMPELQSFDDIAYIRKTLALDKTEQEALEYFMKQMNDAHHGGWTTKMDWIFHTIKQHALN
T1 sequence (Q8N122 whole entry, looked up, other chains not shown, canonical isoform): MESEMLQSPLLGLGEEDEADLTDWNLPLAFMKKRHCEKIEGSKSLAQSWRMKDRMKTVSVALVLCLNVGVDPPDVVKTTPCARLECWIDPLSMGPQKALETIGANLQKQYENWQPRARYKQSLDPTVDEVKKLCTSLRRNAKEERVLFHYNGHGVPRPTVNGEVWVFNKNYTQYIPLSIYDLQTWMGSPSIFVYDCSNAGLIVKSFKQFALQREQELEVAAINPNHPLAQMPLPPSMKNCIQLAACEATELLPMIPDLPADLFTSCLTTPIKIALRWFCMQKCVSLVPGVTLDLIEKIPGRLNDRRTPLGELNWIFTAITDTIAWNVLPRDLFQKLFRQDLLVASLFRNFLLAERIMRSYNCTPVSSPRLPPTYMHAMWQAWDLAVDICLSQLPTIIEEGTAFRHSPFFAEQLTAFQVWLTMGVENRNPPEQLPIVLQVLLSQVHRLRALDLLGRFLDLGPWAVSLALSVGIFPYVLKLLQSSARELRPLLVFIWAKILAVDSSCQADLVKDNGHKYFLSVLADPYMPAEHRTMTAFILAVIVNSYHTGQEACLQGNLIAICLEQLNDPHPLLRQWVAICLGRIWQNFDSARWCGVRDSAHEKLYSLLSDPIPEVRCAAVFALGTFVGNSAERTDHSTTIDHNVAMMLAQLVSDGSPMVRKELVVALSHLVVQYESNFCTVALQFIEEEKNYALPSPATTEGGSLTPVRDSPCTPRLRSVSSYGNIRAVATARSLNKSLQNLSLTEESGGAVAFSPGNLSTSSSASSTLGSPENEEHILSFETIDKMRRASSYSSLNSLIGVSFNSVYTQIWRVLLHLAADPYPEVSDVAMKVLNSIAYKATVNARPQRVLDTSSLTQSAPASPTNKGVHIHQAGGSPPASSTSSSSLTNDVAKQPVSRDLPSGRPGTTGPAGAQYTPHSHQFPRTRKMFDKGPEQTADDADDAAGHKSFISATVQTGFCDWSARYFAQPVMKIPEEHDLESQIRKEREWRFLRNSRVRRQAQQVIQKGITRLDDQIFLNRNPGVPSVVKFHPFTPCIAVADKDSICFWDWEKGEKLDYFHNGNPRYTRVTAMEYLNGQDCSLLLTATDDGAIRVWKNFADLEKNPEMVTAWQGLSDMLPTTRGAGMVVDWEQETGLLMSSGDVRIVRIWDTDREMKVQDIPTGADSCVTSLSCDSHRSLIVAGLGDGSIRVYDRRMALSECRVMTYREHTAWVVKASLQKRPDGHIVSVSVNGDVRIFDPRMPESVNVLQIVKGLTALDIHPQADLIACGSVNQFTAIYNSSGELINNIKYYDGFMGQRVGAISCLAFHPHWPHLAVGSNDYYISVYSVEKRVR
T1 sequence (Q9BVC4 whole entry, looked up, other chains not shown, canonical isoform): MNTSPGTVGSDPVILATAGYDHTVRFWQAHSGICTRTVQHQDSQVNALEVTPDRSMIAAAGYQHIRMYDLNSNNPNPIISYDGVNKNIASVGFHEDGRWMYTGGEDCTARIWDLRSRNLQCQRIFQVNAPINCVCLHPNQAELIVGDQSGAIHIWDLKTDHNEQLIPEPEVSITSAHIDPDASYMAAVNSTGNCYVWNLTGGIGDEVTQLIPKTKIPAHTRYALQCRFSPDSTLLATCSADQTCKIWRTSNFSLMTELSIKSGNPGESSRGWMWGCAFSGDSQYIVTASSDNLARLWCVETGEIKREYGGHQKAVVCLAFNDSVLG

Compound: CO[C@H]1C[C@@H]2CC[C@@H](C)[C@@](O)(O2)C(=O)C(=O)N2CCCC[C@H]2C(=O)O[C@H]([C@H](C)C[C@@H]2CC[C@@H](OCCO)[C@H](OC)C2)CC(=O)[C@H](C)/C=C(\C)[C@@H](O)[C@@H](OC)C(=O)[C@H](C)C[C@H](C)/C=C/C=C/C=C/1C [EVEROLIMUS]
viability at 1 µM (MCF7 [1]): 30%
EC50 (MCF7 [2]): < 1 nM

inhibition (mTORC1 (Homo sapiens) [5]): Dose-dependent effect
IC50 [6]: > 100000 nM
inhibition [7]: 99%
inhibition [8]: 77%
IC50 [9]: 1840 nM
IC50 [10]: 1340 nM
IC50 [11]: 981 nM
inhibition [12]: 65%
IC50 [13]: > 100000 nM
inhibition (mTORC1 (Homo sapiens) [14]): 100%
inhibition [15]: 90%
IC50 [16]: > 100000 nM
inhibition [17]: 85%
IC50 [18]: 1340 nM
IC50 [22]: > 100000 nM
IC50 [23]: > 100000 nM
IC50 [25]: > 100000 nM
inhibition (mTORC1 (Homo sapiens) [26]): 100%
IC50 [27]: 1840 nM
IC50 [28]: 981 nM
IC50 [29]: > 100000 nM
IC50 [30]: 320 nM
IC50 [31]: > 100000 nM
IC50 [32]: > 100000 nM
IC50 [34]: > 100000 nM
IC50 [35]: 2110 nM
inhibition (mTORC1 (Homo sapiens) [36]): Dose-dependent effect
Compound: CCOC(Cn1nc(-c2ccc3oc(N)nc3c2)c2c(N)ncnc21)OCC
Activity (MDA-MB-231 [3]): Active
Activity [4]: Active
inhibition (MCF7 [19]): Dose-dependent effect
EC50 (MDA-MB-231 [20]): 72 nM
EC50 [21]: 37 nM
EC50 (MCF7 [2]): 8 nM
inhibition (MCF7 [24]): 100%
Activity (MCF7 [33]): Active

IC50 [6]: 5600 nM
IC50 [10]: 99 nM
IC50 [11]: 300 nM
IC50 [16]: > 100000 nM
IC50 [22]: > 100000 nM
IC50 [23]: > 100000 nM
IC50 [25]: > 100000 nM
IC50 [27]: 505 nM
IC50 [29]: > 100000 nM
IC50 [31]: 9920 nM
IC50 [32]: > 100000 nM
IC50 [34]: > 100000 nM
IC50 [37]: 25 nM
Compound: COC(Cn1nc(-c2ccc3oc(N)nc3c2)c2c(N)ncnc21)OC
EC50 (MCF7 [2]): 6.7 nM
